Values of other authors, collected in US20210353513A1, “STABILIZED OIL-IN-WATER EMULSION” (priority 2018, published 2021).

- Density (g/cm^3) at 20° C.: 1.05 g/mL
SMILES: CCCCCCCCCC(=O)OCC(COC(=O)CCCCCCCCC)OC(=O)CCCCCCCCC [Tricaprin (s, β), Tricaprin]
